Values quoted from earlier work in patent US20250268823A1, “Aqueous Quetiapine Solutions” (RELIIS LTD, priority 2022, published 2025).
Where a name gives a salt, the structure may show the parent alone.

Legend:
[1] = molecular target: dopaminergic D1 receptors (Homo sapiens, UniProt P21728)
[2] = molecular target: dopaminergic D2 receptors (Homo sapiens, UniProt P14416)
Sequence of dopaminergic D2 receptors (P14416 whole entry): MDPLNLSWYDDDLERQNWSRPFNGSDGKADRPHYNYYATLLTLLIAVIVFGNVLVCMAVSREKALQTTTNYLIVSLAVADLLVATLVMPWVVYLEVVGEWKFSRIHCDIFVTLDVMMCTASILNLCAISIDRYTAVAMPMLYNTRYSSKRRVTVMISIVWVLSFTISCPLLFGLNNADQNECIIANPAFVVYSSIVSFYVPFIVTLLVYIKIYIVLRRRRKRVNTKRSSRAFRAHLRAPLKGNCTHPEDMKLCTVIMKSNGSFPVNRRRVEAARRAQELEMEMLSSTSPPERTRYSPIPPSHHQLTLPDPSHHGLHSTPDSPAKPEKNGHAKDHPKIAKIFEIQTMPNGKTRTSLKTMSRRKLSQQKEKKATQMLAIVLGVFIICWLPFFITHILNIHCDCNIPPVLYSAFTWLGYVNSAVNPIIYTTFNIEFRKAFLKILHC

Sequence of dopaminergic D1 receptors (P21728 whole entry): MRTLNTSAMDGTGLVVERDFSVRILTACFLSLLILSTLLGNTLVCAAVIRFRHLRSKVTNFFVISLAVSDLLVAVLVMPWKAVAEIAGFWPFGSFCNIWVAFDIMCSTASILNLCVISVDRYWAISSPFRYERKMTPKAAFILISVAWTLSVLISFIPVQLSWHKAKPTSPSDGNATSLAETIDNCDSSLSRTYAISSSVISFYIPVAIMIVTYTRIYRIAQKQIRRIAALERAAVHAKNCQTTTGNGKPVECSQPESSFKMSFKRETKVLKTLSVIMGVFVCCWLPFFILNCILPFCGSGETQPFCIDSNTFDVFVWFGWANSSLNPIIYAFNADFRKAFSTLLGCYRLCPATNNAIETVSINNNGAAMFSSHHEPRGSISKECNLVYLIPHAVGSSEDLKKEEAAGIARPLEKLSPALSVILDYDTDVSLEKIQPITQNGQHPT

In the case of OCCOCCN1CCN(C2=Nc3ccccc3Sc3ccccc32)CC1 [Quetiapine, 2-(2-(4-(dibenzo[b,f][1,4]thiazepin-11-yl)piperazin-1-yl)ethoxy)ethanol], the “affinity to D1 receptors” value [1] is listed as “major affinity”, the “affinity to α2-adrenergic receptors” value (α2-adrenergic receptors) is listed as “moderate affinity” and the “affinity to α1-adrenergic receptors” value (α1-adrenergic receptors) is listed as “moderate affinity”. The “affinity to D2 receptors” value [2] was “major affinity” and the “binding at D2 receptors” value [2] was “low binding”.

For OCCOCCN1CCN(C2=Nc3ccccc3Sc3ccccc32)CC1 [quetiapine fumarate], the solubility in water is given as “about 0.04 mg/ml”.
